Consider eight compounds from patent EP2420510B1, “Nicotinoyl peptide derivatives and cosmetic composition comprising the same” (BIO-FD&C Co., Ltd., priority 2010, dated 2013).

Residues, ends and D or L forms follow the SMILES beside them.

One data set concerns Human fibroblasts. Put plainly: Cytotoxicity test (MTT, cell growth effect). In kind it is cell-based. The settings on record: 100 µM, 24 hours, MTT absorbance at 570 nm relative to purified water control (=100). The protocol:
(§1) 50 µl of 3-(4,5-dimethylthiazol-2-yl)-2,5-diphenyltetrazolium bromide (MTT, Sigma M5655, USA) solution (2.5 mg/mℓ) was added to the culture solution, followed by further culturing for 3 hours. Then, the culture solution was centrifuged to remove a supernatant, and 200 µl of dimethylsulfoxide (DMSO, Sigma D2650, USA) was added to each well and vortexed for 20 minutes to dissolve formazan crystals formed. 100 µl of the resulting solution was added to a 96-well plate and its absorbance was measured at 570 nm with enzyme-linked immunosorbent assay (ELISA).

Data set [1] relates to Human fibroblasts (primary cell line, CCD-986sk). The settings on record: 100 µM, 24 hours, CCD-986sk fibroblasts, PIP ELISA absorbance at 450 nm relative to purified water control (=100). In general terms: In an ELISA, binding on a coated surface is turned into a signal by an enzyme label.
Protocol: Human fibroblasts (primary cell line, CCD-986sk) were seeded to a plate and cultured in Dulbecco's modified Eagle's medium (DMEM) supplemented with penicillin (100 IU/ml), streptomycin (100µg/ml) and 10% fetal bovine serum (FBS) at 37 °C with 5% CO2.
The cultured cells were divided to a 48-well plate in 5×10^4 cells/well and cultured for 24 hours. […] The amount of collagen generated in the culture solution was measured with procollagen type I C-peptide (PIP) (Takara, MK101) ELISA.
After 100 µℓ of antibody-PoD conjugate solution was added to each well, 20 µℓ of the culture solution diluted to 1/5 and standard solution were added and cultured at 37 °C for 3 hours. Then, each well was washed four times with 400 µℓ of PBS. 100 µℓ of color coupler was added and cultured at room temperature for 15 minutes. Then, 100 µℓ of IN sulfuric acid was added and the absorbance was measured at 450 nm with a ELISA reader.
Collagen generation activity = (Absorbance of peptide treated group)/(Absorbance of control) X 100 [formula]
Data set [2] in a line: Cytotoxicity test (MTT, cell growth effect). In kind it is cell-based. Particulars: human fibroblasts, MTT absorbance at 570 nm relative to purified water control (=100). The protocol: as §1
Another data set deals with iNOS. Put plainly: Anti-inflammatory activity test (iNOS activity inhibition test; nitric oxide by Griess reagent after LPS). The data set is classed as cell-based, murine. The settings on record: Mus musculus; amount of nitric oxide produced relative to group treated with LPS only (=100); 100 µM pre-treatment 18 hours, then LPS 24 hours, Raw264.7 cells; read-out: Yields (%). The procedure: Raw264.7 cells (murine macrophage cell line) were suspended in 10% fetal bovine serum-Dulbecco's modified Eagle's medium (FBS-DMEM) without […] (GIBCO) in […] and seed to a 24-well plate.
Then, […] of lipopolysaccharide (LPS, Sigma) was added and cultured for 24 hours. Afterwards, 100µℓ of the obtained supernatant was added to a 96-well plate and the same amount of Griess reagent (Sigma) was added, followed by light vortexing at room temperature for 10 minutes. The absorbance was measured at 570 nm.
The calibration curve was prepared using sodium nitrite as a standard, and the amount of nitric oxide produced in the culture solution was calculated. […]
In general terms: The Griess reaction detects nitrite, a stable product of nitric oxide.

Take `O=C(O)CNC(=O)[C@H](CS)NC(=O)CC[C@H](NC(=O)c1cccnc1)C(=O)O` [Comparative Example 1, nicotinoyl-tripeptide (γ-glutamyl-cysteinyl-glycine (SEO ID No:13))]: the “Cell Growth Effect (%)” value in the data set on Human fibroblasts is 98.3%.

`C[C@@H](O)[C@H](NC(=O)[C@H](CCCCN)NC(=O)c1cccnc1)C(=O)N[C@H](C(=O)N[C@@H](CCCCN)C(=O)N[C@@H](CO)C(=O)O)[C@@H](C)O` [Comparative Example 2, nicotinoyl-pentapeptide (lysyl-threonyl-threonyl-lysyl-serine (SEQ ID No:12))] (HELM PEPTIDE1{[O=C(c1cccnc1)[*:2]].K.T.T.K.S}$$$$V2.0): the “Cell Growth Effect (%)” value in the data set on Human fibroblasts is recorded as 97.6%.

Take `CSCC[C@H](NC(=O)[C@H](Cc1ccccc1)NC(=O)CNC(=O)CNC(=O)[C@H](Cc1ccc(O)cc1)NC(=O)c1cccnc1)C(=O)O` [Example 1, nicotinoyl-pentapeptide (tyrosyl-glycyl-glycyl-phenylalanyl-methionine (SEQ ID No:1))]: the “Cell Growth Effect (%)” value with Human fibroblasts came to 102.1%.

In the case of `CC(C)C[C@H](NC(=O)[C@H](Cc1ccccc1)NC(=O)CNC(=O)CNC(=O)[C@H](Cc1ccc(O)cc1)NC(=O)c1cccnc1)C(=O)O` [Example 2, nicotinoyl-pentapeptide (tyrosyl-glycyl-glycyl-Phenylalanyl-leucine (SEO ID No:2))], the “Cell Growth Effect (%)” value with Human fibroblasts was found to be 101.3%.

Take `CC(C)C[C@H](NC(=O)[C@H](Cc1ccccc1)NC(=O)CNC(=O)CNC(=O)[C@H](Cc1ccc(O)cc1)NC(=O)c1cccnc1)C(=O)N[C@@H](CCCNC(=N)N)C(=O)N[C@@H](CCCCN)C(=O)N[C@@H](Cc1ccc(O)cc1)C(=O)N1CCC[C@H]1C(=O)O` [Example 3, nicotinoyl-nonapeptide (tyrosyl-glycyl-glycyl-phenylalanyl-leucyl-arginyl-lysyl-tyrosyl-proline (SEQ ID No:3))] (HELM PEPTIDE1{[O=C(c1cccnc1)[*:2]].Y.G.G.F.L.R.K.Y.P}$$$$V2.0): in the data set with Human fibroblasts, the “Cell Growth Effect (%)” value stood at 99.1%.

With `CC(C)C[C@H](NC(=O)[C@H](Cc1ccccc1)NC(=O)CNC(=O)CNC(=O)[C@H](Cc1ccc(O)cc1)NC(=O)c1cccnc1)C(=O)N[C@@H](CCCNC(=N)N)C(=O)N[C@@H](CCCCN)C(=O)N[C@@H](Cc1ccc(O)cc1)C(=O)N1CCC[C@H]1C(=O)N[C@@H](CCCCN)C(=O)O` [Example 4, nicotinoyl-decapeptide (tyrosyl-glycyl-glycyl-phenylalanyl-leucyl-arginyl-lysyl-tyrosyl-prolyl-lycine (SEQ ID No:4))] (HELM PEPTIDE1{[O=C(c1cccnc1)[*:2]].Y.G.G.F.L.R.K.Y.P.K}$$$$V2.0), the “Cell Growth Effect (%)” value in the data set with Human fibroblasts was 98.8%.

As usually defined, the viability is a read-out of living cells in per cent, often relative to untreated cells. With `NC(=O)c1cccnc1` [Nicotinamide], the “Collagen Generation Activity (%)” value in data set [1] is reported as 108.8%. The viability at 24 h, 100 µM in data set [2] is 103%. In addition, in the data set on iNOS, the activity at 100 µM is 96.1%.

Regarding `O=C(O)c1cccnc1` [Nicotinic acid], the “Collagen Generation Activity (%)” value in data set [1] is reported as 105.2%. Also, the viability at 24 h, 100 µM in data set [2] worked out at 102%. Besides, the activity at 100 µM with iNOS amounted to 98.8%.
